From patent publication US9133183B2, “Imidazolidinones and analogs exhibiting anti-cancer and anti-proliferative activities” (Deciphera Pharmaceuticals, LLC, priority 2013, dated 2015) come the findings set out here.

In assay [1] the target is unphosphorylated c-FMS kinase (uFMS, Seq. ID no. 1) (Homo sapiens (Human), UniProt P07333). Nature of the assay: uFMS kinase assay (ADP production coupled to pyruvate kinase/lactate dehydrogenase). Type of assay: biochemical. The method, boiled down: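 Unphosphorylated FMS (10 nM) with polyE4Y 1 mg/mL and 500 μM ATP in 90 mM Tris pH 7.5, 10 mM MgCl2, 0.2% octyl-glucoside, 1% DMSO. ADP formation was coupled via pyruvate kinase/LDH to NADH oxidation, followed at A340 for 4 h at 30° C.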

The target of assay [2] is c-FMS kinase in THP-1 cells (Homo sapiens (Human), UniProt P07333). Description: Phospho-FMS ELISA assay in THP-1 cells. It is filed as cell-based.
The target of assay [3] is unphosphorylated PDGFRβ kinase (uPDGFRβ, Seq. ID No. 3) (Homo sapiens (Human), UniProt P09619). Nature of the assay: Unphosphorylated PDGFRβ kinase assay (coupled pyruvate kinase/lactate dehydrogenase). Type of assay: biochemical. To be noted: enzymatic assay, ATP 500 μM. The method, boiled down:
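Construct residues 557-1106, unphosphorylated, 15.7 nM, with poly E4Y 2.5 mg/mL and 500 μM ATP, Tris pH 7.5, 1% DMSO, 30 °C. ADP coupled to NADH oxidation via PK/LDH, A340 followed 4 h; rate from 1.5-2.5 h versus no-compound control, IC50 from percent-inhibition series.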

For assay [4], the target named is unphosphorylated c-KIT kinase (uKIT, Seq. ID no. 2) (Homo sapiens (Human), UniProt P10721). Nature of the assay: uKit kinase assay (coupled pyruvate kinase/lactate dehydrogenase). Type of assay: biochemical. The settings on record: enzymatic assay, ATP 2000 μM. The method, boiled down:
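The read-out was a continuous PK/LDH-coupled decrease in NADH absorbance at 340 nm, monitored at 30 °C over 4 h. IC50 came from % inhibition based on rates at 3–4 h. The GST-tagged unphosphorylated KIT (12 nM) was used with polyE4Y substrate, 2000 μM ATP and 10 mM Mg2+ at pH 7.5, with serially diluted compound.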

The mark [5] stands for this setting: enzymatic assay, ATP 500 μM, read-out: uFMS.
The mark [6] stands for this setting: 4 h compound, M-CSF stimulation 5 min, read-out: pFMS inhibition in THP-1 cells.

Where two headings read alike, the source gives them in different places. Bounds are passed on as bounds.

unphosphorylated c-FMS kinase (uFMS, Seq. ID no. 1), sequence (P07333 538-972): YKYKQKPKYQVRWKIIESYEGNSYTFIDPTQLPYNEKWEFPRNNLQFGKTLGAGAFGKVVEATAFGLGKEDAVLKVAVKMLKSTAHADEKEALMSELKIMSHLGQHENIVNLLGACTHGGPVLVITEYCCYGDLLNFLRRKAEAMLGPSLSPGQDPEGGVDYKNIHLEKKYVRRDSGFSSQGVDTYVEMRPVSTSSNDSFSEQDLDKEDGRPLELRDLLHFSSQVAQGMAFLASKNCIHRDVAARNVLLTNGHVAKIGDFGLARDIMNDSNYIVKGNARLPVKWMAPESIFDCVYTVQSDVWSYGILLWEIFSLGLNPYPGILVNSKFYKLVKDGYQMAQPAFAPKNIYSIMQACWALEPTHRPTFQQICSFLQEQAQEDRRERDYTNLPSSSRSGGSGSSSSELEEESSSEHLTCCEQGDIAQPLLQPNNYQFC
unphosphorylated c-KIT kinase (uKIT, Seq. ID no. 2), sequence (P10721 other isoform, or with tags, fused parts or gaps): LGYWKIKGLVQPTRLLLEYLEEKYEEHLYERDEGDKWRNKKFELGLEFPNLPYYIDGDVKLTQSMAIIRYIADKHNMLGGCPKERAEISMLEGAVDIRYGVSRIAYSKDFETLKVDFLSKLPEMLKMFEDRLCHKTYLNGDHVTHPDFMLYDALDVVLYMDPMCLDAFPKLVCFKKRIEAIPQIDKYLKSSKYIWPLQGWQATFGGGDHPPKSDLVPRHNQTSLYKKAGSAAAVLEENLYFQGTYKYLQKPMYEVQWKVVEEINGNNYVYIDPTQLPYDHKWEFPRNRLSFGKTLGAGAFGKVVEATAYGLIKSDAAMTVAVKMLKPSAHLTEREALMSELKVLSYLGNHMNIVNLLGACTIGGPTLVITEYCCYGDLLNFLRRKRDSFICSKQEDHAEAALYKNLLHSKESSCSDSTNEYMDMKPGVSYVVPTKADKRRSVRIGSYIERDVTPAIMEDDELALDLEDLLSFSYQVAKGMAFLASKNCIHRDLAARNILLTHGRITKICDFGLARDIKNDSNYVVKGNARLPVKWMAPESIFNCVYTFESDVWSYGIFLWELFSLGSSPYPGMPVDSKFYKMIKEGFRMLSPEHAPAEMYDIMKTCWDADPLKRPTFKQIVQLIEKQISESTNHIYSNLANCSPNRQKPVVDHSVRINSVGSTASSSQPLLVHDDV
c-FMS kinase in THP-1 cells, sequence (P07333 20-972): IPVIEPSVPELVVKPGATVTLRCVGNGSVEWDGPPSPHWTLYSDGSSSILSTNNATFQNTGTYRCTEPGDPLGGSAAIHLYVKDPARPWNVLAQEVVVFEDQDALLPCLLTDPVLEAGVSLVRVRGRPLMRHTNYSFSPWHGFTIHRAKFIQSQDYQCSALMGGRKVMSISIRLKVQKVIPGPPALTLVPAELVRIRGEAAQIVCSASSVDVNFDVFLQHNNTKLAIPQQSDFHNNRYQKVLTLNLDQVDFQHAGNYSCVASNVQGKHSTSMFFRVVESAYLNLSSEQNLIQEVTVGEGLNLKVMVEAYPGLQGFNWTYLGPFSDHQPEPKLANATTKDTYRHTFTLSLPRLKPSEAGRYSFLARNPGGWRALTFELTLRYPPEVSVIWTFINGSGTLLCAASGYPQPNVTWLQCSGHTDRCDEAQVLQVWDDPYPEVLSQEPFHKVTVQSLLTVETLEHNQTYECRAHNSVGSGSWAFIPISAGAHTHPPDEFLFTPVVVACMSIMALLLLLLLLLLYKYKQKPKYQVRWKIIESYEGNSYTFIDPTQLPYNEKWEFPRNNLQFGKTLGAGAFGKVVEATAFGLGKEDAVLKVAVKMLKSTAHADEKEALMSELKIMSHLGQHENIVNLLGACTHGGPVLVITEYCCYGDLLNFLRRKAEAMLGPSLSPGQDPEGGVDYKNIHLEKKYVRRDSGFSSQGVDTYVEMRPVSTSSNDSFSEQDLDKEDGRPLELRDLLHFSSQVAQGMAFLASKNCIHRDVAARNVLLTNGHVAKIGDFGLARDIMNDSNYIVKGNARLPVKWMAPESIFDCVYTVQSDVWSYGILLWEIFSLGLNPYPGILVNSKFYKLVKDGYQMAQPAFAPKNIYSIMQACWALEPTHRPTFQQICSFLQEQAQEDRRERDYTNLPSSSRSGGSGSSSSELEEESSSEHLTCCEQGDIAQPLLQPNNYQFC
unphosphorylated PDGFRβ kinase (uPDGFRβ, Seq. ID No. 3), sequence (P09619 557-1106): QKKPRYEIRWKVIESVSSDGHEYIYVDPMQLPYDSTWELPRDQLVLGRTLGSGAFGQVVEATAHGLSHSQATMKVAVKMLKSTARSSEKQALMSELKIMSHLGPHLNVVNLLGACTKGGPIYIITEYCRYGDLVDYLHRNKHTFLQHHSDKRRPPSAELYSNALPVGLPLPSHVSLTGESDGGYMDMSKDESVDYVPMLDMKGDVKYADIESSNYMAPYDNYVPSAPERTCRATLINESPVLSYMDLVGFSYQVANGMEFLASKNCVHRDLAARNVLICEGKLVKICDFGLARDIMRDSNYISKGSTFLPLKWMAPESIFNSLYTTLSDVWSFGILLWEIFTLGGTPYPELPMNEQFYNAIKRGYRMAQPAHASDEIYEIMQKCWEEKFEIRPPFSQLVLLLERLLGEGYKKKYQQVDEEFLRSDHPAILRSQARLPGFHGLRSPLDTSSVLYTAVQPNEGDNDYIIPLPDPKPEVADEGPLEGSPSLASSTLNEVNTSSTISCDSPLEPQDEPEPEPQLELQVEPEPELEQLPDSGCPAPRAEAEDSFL

Turning to `Cn1cc(-c2cc(Oc3ccc(NC(=O)N4CCN(C(C)(C)C)C4=O)nc3)ccn2)cn1` [Example 34, 3-(tert-butyl)-N-(5-((2-(1-methyl-1H-pyrazol-4-yl)pyridin-4-yl)oxy)pyridin-2-yl)-2-oxoimidazolidine-1-carboxamide], the IC50 in assay [1] (setting [5]) was under 10 nM; in assay [2] (setting [6]), under 10 nM; in assay [3], 10 to 100 nM; in assay [4], under 10 nM.
`Cc1nc(NC(=O)N2CCN(C(C)C)C2=O)ccc1Oc1ccnc(-c2cnn(C)c2)c1` [Example 35, 3-isopropyl-N-(6-methyl-5-((2-(1-methyl-1H-pyrazol-4-yl)pyridin-4-yl)oxy)pyridin-2-yl)-2-oxoimidazolidine-1-carboxamide]: the IC50 in assay [1] (setting [5]) is under 10 nM; in assay [2] (setting [6]), under 10 nM; in assay [3], 100 to 1000 nM; in assay [4], 100 to 1000 nM.
As for `CC(C)N1CCN(C(=O)Nc2ccc(Oc3ccnc(-c4cnn(C)c4)c3)cn2)C1=O` [Example 36, 3-isopropyl-N-(5-((2-(1-methyl-1H-pyrazol-4-yl)pyridin-4-yl)oxy)pyridin-2-yl)-2-oxoimidazolidine-1-carboxamide], the IC50 in assay [1] (setting [5]) was under 10 nM; in assay [2] (setting [6]), under 10 nM; in assay [3] it was 100 to 1000 nM; in assay [4], 10 to 100 nM.
For the compound `[2H]C([2H])([2H])n1cc(-c2cc(Oc3ccc(NC(=O)N4CCN(CCOC)C4=O)nc3C)ccn2)cn1` [Example 39, 3-(2-methoxyethyl)-N-(6-methyl-5-((2-(1-(trideuteromethyl)-1H-pyrazol-4-yl)pyridin-4-yl)oxy)pyridin-2-yl)-2-oxoimidazolidine-1-carboxamide], the IC50 in assay [1] (setting [5]) is 10 to 100 nM; in assay [2] (setting [6]) it was 10 to 100 nM; in assay [3], over 1000 nM; in assay [4], 100 to 1000 nM.
As for `Cc1nc(NC(=O)N2CCN(C)C2=O)ccc1Oc1ccnc(-c2cnn(C)c2)c1` [Example 41, 3-methyl-N-(6-methyl-5-((2-(1-methyl-1H-pyrazol-4-yl)pyridin-4-yl)oxy)pyridin-2-yl)-2-oxoimidazolidine-1-carboxamide], the IC50 in assay [1] (uFMS, enzymatic assay, ATP 500 μM) is 10 to 100 nM; in assay [2] it was 10 to 100 nM; in assay [3] it was over 1000 nM; in assay [4], over 1000 nM.
Take `CCN1CCN(C(=O)Nc2ccc(Oc3ccnc(-c4cnn(C)c4)c3)c(C)n2)C1=O` [Example 42, 3-ethyl-N-(6-methyl-5-((2-(1-methyl-1H-pyrazol-4-yl)pyridin-4-yl)oxy)pyridin-2-yl)-2-oxoimidazolidine-1-carboxamide]: the IC50 in assay [1] (Table 4, read-out: c-FMS IC50) was 8 nM; in assay [1] (setting [5]), under 10 nM; in assay [2] (setting [6]), 10 to 100 nM; in assay [3], over 1000 nM; in assay [4] it was 100 to 1000 nM.
As to `Cc1nc(NC(=O)N2CCN(CC(F)(F)F)C2=O)ccc1Oc1ccnc(-c2cnn(C)c2)c1` [Example 43, N-(6-methyl-5-((2-(1-methyl-1H-pyrazol-4-yl)pyridin-4-yl)oxy)pyridin-2-yl)-2-oxo-3-(2,2,2-trifluoroethyl)imidazolidine-1-carboxamide], the IC50 was under 10 nM in assay [1] (setting [5]), 10 to 100 nM in assay [2] (setting [6]), over 1000 nM in assay [3] and 100 to 1000 nM in assay [4].
As to `CCc1nc(NC(=O)N2CCN(C3CCOCC3)C2=O)ccc1Oc1ccnc(-c2cnn(C)c2)c1` [Example 49, N-(6-ethyl-5-((2-(1-methyl-1H-pyrazol-4-yl)pyridin-4-yl)oxy)pyridin-2-yl)-2-oxo-3-(tetrahydro-2H-pyran-4-yl)imidazolidine-1-carboxamide], the IC50 was 10 to 100 nM in assay [1] (setting [5]), 100 to 1000 nM in assay [2] (setting [6]), over 1000 nM in assay [3] and over 1000 nM in assay [4].
`Cc1ccc(-c2cc(Oc3ccc(NC(=O)N4CCN(C5CCOCC5)C4=O)nc3)ccn2)cn1` [Example 52, N-(5-((6′-methyl-[2,3′-bipyridin]-4-yl)oxy)pyridin-2-yl)-2-oxo-3-(tetrahydro-2H-pyran-4-yl)imidazolidine-1-carboxamide]: the IC50 in assay [1] (setting [5]) was 10 to 100 nM; in assay [2] (setting [6]), 100 to 1000 nM; in assay [3], 100 to 1000 nM; in assay [4], 10 to 100 nM.
With `Cc1ccc(-c2cc(Oc3ccc(NC(=O)N4CCN(C5CCOCC5)C4=O)nc3C)ccn2)cn1` [Example 54, N-(6-methyl-5-((6′-methyl-[2,3′-bipyridin]-4-yl)oxy)pyridin-2-yl)-2-oxo-3-(tetrahydro-2H-pyran-4-yl)imidazolidine-1-carboxamide], the IC50 was 10 to 100 nM in assay [1] (setting [5]), 100 to 1000 nM in assay [2] (setting [6]), 100 to 1000 nM in assay [3] and 100 to 1000 nM in assay [4].
Turning to `CCc1nc(NC(=O)N2CCN(CC(F)(F)F)C2=O)ccc1Oc1ccnc(-c2cnn(C)c2)c1` [Example 56, N-(6-ethyl-5-((2-(1-methyl-1H-pyrazol-4-yl)pyridin-4-yl)oxy)pyridin-2-yl)-2-oxo-3-(2,2,2-trifluoroethyl)imidazolidine-1-carboxamide], the IC50 is 10 to 100 nM in assay [1] (setting [5]), 100 to 1000 nM in assay [2] (setting [6]), over 1000 nM in assay [3] and over 1000 nM in assay [4].
As to `CCc1nc(NC(=O)N2CCN(C3CCCC3)C2=O)ccc1Oc1ccnc(-c2cnn(C)c2)c1` [Example 57, 3-cyclopentyl-N-(6-ethyl-5-((2-(1-methyl-1H-pyrazol-4-yl)pyridin-4-yl)oxy)pyridin-2-yl)-2-oxoimidazolidine-1-carboxamide], the IC50 in assay [1] (setting [5]) was under 10 nM; in assay [2] (setting [6]), 10 to 100 nM; in assay [3] it was over 1000 nM; in assay [4] it was over 1000 nM.
On to `CCc1nc(NC(=O)N2CCN(C3CC3)C2=O)ccc1Oc1ccnc(-c2cnn(C)c2)c1` [Example 58, 3-cyclopropyl-N-(6-ethyl-5-((2-(1-methyl-1H-pyrazol-4-yl)pyridin-4-yl)oxy)pyridin-2-yl)-2-oxoimidazolidine-1-carboxamide], for which the IC50 was 10 to 100 nM in assay [1] (setting [5]), 10 to 100 nM in assay [2] (setting [6]), over 1000 nM in assay [3] and over 1000 nM in assay [4].
On to `CCN1CCN(C(=O)Nc2ccc(Oc3ccnc(-c4ccc(C5CCN(C)CC5)cc4)c3)c(C)n2)C1=O` [Example 61, 3-ethyl-N-(6-methyl-5-((2-(4-(1-methylpiperidin-4-yl)phenyl)pyridin-4-yl)oxy)pyridin-2-yl)-2-oxoimidazolidine-1-carboxamide], for which the IC50 in assay [1] (setting [5]) was under 10 nM; in assay [2] (setting [6]), under 10 nM; in assay [3] it was over 1000 nM; in assay [4], 100 to 1000 nM.
Regarding `Cc1cc(NC(=O)N2CCN(C)C2=O)ncc1Oc1ccnc(-c2cnn(C)c2)c1` [Example 85, 3-methyl-N-(4-methyl-5-((2-(1-methyl-1H-pyrazol-4-yl)pyridin-4-yl)oxy)pyridin-2-yl)-2-oxoimidazolidine-1-carboxamide], the IC50 in assay [1] (setting [5]) is under 10 nM; in assay [2] (setting [6]), 10 to 100 nM; in assay [3], over 1000 nM; in assay [4], 10 to 100 nM.
Regarding `CCN1CCN(C(=O)Nc2cc(C)c(Oc3ccnc(-n4cnc(C)c4)c3)cn2)C1=O` [Example 88, 3-ethyl-N-(4-methyl-5-((2-(4-methyl-1H-imidazol-1-yl)pyridin-4-yl)oxy)pyridin-2-yl)-2-oxoimidazolidine-1-carboxamide], the IC50 in assay [1] (setting [5]) was 10 to 100 nM; in assay [2] (setting [6]), 10 to 100 nM; in assay [3], over 1000 nM; in assay [4], 100 to 1000 nM.
For `CCN1CCN(C(=O)Nc2ccc(Oc3ccnc(-c4cnc(C)o4)c3)cn2)C1=O` [Example 117, 3-ethyl-N-(5-((2-(2-methyloxazol-5-yl)pyridin-4-yl)oxy)pyridin-2-yl)-2-oxoimidazolidine-1-carboxamide], the IC50 in assay [1] (setting [5]) was 100 to 1000 nM; in assay [2] (setting [6]), 10 to 100 nM; in assay [3] it was over 1000 nM; in assay [4] it was 100 to 1000 nM.
Turning to `CCN1CCN(C(=O)Nc2ccc(Oc3ccnc(-c4ccnc(C)c4)c3)c(C)n2)C1=O` [Example 118, 3-ethyl-N-(6-methyl-5-((2′-methyl-[2,4′-bipyridin]-4-yl)oxy)pyridin-2-yl)-2-oxoimidazolidine-1-carboxamide], the IC50 in assay [1] (setting [5]) was 10 to 100 nM; in assay [2] (setting [6]), 10 to 100 nM; in assay [3] it was over 1000 nM; in assay [4], over 1000 nM.
Turning to `CC(=O)Nc1cc(Oc2ccc(NC(=O)N3CCN(C4CCOCC4)C3=O)nc2)ccn1` [Example 119, N-(5-((2-acetamidopyridin-4-yl)oxy)pyridin-2-yl)-2-oxo-3-(tetrahydro-2H-pyran-4-yl)imidazolidine-1-carboxamide], the IC50 in assay [1] (setting [5]) was 10 to 100 nM; in assay [2] (setting [6]), 10 to 100 nM; in assay [3], 100 to 1000 nM; in assay [4] it was 100 to 1000 nM.
With `CN(C)C(=O)Nc1cc(Oc2ccc(NC(=O)N3CCN(C4CCOCC4)C3=O)nc2)ccn1` [Example 120, N-(5-((2-(3,3-dimethylureido)pyridin-4-yl)oxy)pyridin-2-yl)-2-oxo-3-(tetrahydro-2H-pyran-4-yl)imidazolidine-1-carboxamide], the IC50 in assay [1] (setting [5]) was under 10 nM; in assay [2] (setting [6]) it was 10 to 100 nM; in assay [3], 10 to 100 nM; in assay [4], 10 to 100 nM.
